1 molecule from patent US20040077618A1, “Cycloalkylamides and their therapeutic applications” (priority 2002, published 2004) can be followed below.

Test [1] relates to CD-1 mice. The test is described as follows: Subcutaneous pentylenetetrazole (PTZ) seizure procedure. It counts as in vivo. The following applies: Mus musculus; PTZ 85 mg/kg subcutaneous; oral pretreatment 30 minutes prior; observed 15 minutes; linear regression; male CD-1 mice; read-out: ED50 (dose at which 50% of the mice were protected from tonic seizures). The method, then:
(§1) Adult, male, CD-1 mice (22-25 grams) were obtained from Charles River Laboratories (Portage, Mich.) and housed at Abbott Laboratories (Abbott Park) under standard lighting conditions of 12 hours on/12 hours off, with lights on at 6 a.m. Food and water were provided ad libitum and mice weighed 25-35 grams at the time of testing.
(§2) Compounds were prepared for oral administration by suspending them in a vehicle of 100 uL Tween® 80 per mL hydroxypropyl methylcellulose (2 mg/mL, Abbott Laboratories). Compound solutions were administered at a volume of 10 mL/kg, p.o.
The method used was similar to that of E. A. Swinyard, General principles: Experimental selection, quantification and evaluation of anti-convulsants, Anti-epileptic Drugs, Third Edition, R. Levey, et al., Editors. 1989, Raven Press Ltd: New York. During the experiment the mice were housed individually in clear polycarbonate cages for observation. […] Seizures were induced by the subcutaneous injection of pentylenetetrazole (PTZ, 85 mg/kg) just below the nape of the neck. […] A total of 20 mice were used in each group. The ED50 for the compounds were calculated using linear regression and represent the dose at which 50% of the mice were protected from tonic seizures.

Test [2] has as its system CD-1 mice. The test is described as follows: Maximal electroshock procedure (protection from tonic seizures). The format is in vivo. The following applies: Mus musculus, corneal electrodes 50 mA 0.4 second, oral pretreatment 30 minutes prior, PROBIT analysis, male CD-1 mice, read-out: ED50 (dose at which 50% of the mice were protected from tonic seizures). The method, then: as §1, §2
The method used was similar to that of E. A. Swinyard, General principles: Experimental selection, quantification and evaluation of anti-convulsants, Anti-epileptic Drugs, Third Edition, R. Levey, et al., Editors. 1989, Raven Press Ltd: New York. Mice were pretreated orally with compounds of the present invention 30 minutes prior to electrical stimulation. Electrical stimulation consisted of pulsed electrical current (50 mA, 0.4 second duration, pulse width 0.5 msec, 60 pulses/sec) applied via corneal electrodes to induce seizure. The stimulation was delivered with an ECT Unit (Ugo Basile #7801). […] The percent protection from tonic seizures was calculated by dividing the number of protected mice by the total number in the group. […]
On the technique in general: The maximal electroshock test induces tonic seizures with an electrical stimulus.

For orientation: ED50 means the dose that gives a 50% effect, or the effect in half of the subjects. For the molecule `CCCC(CCC)C(=O)O` [Valproate], the values for the ED50 with CD-1 mice [1] and with CD-1 mice [2] were 1800 µmol/kg and 1200 µmol/kg, respectively.
